Assay results reported in ChEMBL document CHEMBL3885881, “DrugMatrix”.

Organism: Rattus norvegicus
Assay: DrugMatrix - Regimen: Daily Repeat
Assay type: toxicity, organism-based, Sprague-Dawley
Set-up: regimen Daily Repeat, gender Male, age 6-8 weeks
Conditions: in vivo, po, route oral GAVAGE, […]; for ABSOLUTE BASOPHIL / ABSOLUTE EOSINOPHIL / ABSOLUTE LYMPHOCYTE / ABSOLUTE MONOCYTE / ABSOLUTE SEGMENTED NEUTROPHIL / BASOPHIL / EOSINOPHIL / ERYTHROCYTE COUNT / HEMATOCRIT / HEMOGLOBIN / LEUKOCYTE COUNT / LYMPHOCYTE / MEAN CORPUSCULAR HEMOGLOBIN / MEAN CORPUSCULAR HEMOGLOBIN CONCENTRATION / MEAN CORPUSCULAR VOLUME / MONOCYTE / NEUTROPHIL / NUCLEATED RED BLOOD CELLS / PLATELET COUNT: tissue Blood; for ALANINE AMINOTRANSFERASE / ALBUMIN / ALKALINE PHOSPHATASE / ASPARTATE AMINOTRANSFERASE / BLOOD UREA NITROGEN / CARBON DIOXIDE / CHLORIDE / CHOLESTEROL / CREATINE PHOSPHOKINASE / CREATININE / GLUCOSE / LACTATE DEHYDROGENASE / LIPASE / PHOSPHORUS / POTASSIUM / SODIUM / TOTAL BILIRUBIN / TOTAL PROTEIN / URIC ACID: tissue Plasma
[1] = 30 mg/kg, 120 h, dose level Low, time 5 day
[2] = 1093 mg/kg, 72 h, dose level High, time 3 day
[3] = 1093 mg/kg, 120 h, dose level High, time 5 day

CCC(C)n1ncn(-c2ccc(N3CCN(c4ccc(OCC5COC(Cn6cncn6)(c6ccc(Cl)cc6Cl)O5)cc4)CC3)cc2)c1=O (centres undefined) [ITRACONAZOLE]
ABSOLUTE BASOPHIL [1]: 0 CELLS/uL | ABSOLUTE EOSINOPHIL [1]: 154 CELLS/uL | ABSOLUTE LYMPHOCYTE [1]: 10619.33 CELLS/uL | ABSOLUTE MONOCYTE [1]: 425.67 CELLS/uL | ABSOLUTE SEGMENTED NEUTROPHIL [1]: 634.33 CELLS/uL | BASOPHIL [1]: 0% | EOSINOPHIL [1]: 1.33% | ERYTHROCYTE COUNT [1]: 5.97 x10E6/uL | HEMATOCRIT [1]: 38.27% | HEMOGLOBIN [1]: 14.43 G/DL | LEUKOCYTE COUNT [1]: 11.83 x10E3/uL | LYMPHOCYTE [1]: 89.67% | MEAN CORPUSCULAR HEMOGLOBIN [1]: 24.2 pg | MEAN CORPUSCULAR HEMOGLOBIN CONCENTRATION [1]: 37.77 G/DL | MEAN CORPUSCULAR VOLUME [1]: 64.1 fL | MONOCYTE [1]: 3.67% | NEUTROPHIL [1]: 5.33% | NUCLEATED RED BLOOD CELLS [1]: 0 /100WBC | PLATELET COUNT [1]: 1278.33 x10E3/uL | ALANINE AMINOTRANSFERASE [1]: 59.67 u/L | ALBUMIN [1]: 4.03 G/DL | ALKALINE PHOSPHATASE [1]: 472.33 u/L | ASPARTATE AMINOTRANSFERASE [1]: 77 u/L | BLOOD UREA NITROGEN [1]: 9 mg/dL | CARBON DIOXIDE [1]: 23.67 mmol/L | CHLORIDE [1]: 102.67 MEQ/L | CHOLESTEROL [1]: 50.33 mg/dL | CREATINE PHOSPHOKINASE [1]: 199.67 u/L | CREATININE [1]: 0.12 mg/dL | GLUCOSE [1]: 162.67 mg/dL | LACTATE DEHYDROGENASE [1]: 92.67 u/L | LIPASE [1]: 6.33 u/L | PHOSPHORUS [1]: 11.77 mg/dL | POTASSIUM [1]: 6.35 MEQ/L | SODIUM [1]: 142.93 MEQ/L | TOTAL BILIRUBIN [1]: 0.13 mg/dL | TOTAL PROTEIN [1]: 5.97 G/DL | URIC ACID [1]: 1.6 mg/dL | ABSOLUTE BASOPHIL [2]: 0 CELLS/uL | ABSOLUTE EOSINOPHIL [2]: 143 CELLS/uL | ABSOLUTE LYMPHOCYTE [2]: 12564.33 CELLS/uL | ABSOLUTE MONOCYTE [2]: 467.67 CELLS/uL | ABSOLUTE SEGMENTED NEUTROPHIL [2]: 825 CELLS/uL | BASOPHIL [2]: 0% | EOSINOPHIL [2]: 1% | ERYTHROCYTE COUNT [2]: 6.06 x10E6/uL | HEMATOCRIT [2]: 38.43% | HEMOGLOBIN [2]: 14.67 G/DL | LEUKOCYTE COUNT [2]: 14 x10E3/uL | LYMPHOCYTE [2]: 89.67% | MEAN CORPUSCULAR HEMOGLOBIN [2]: 24.23 pg | MEAN CORPUSCULAR HEMOGLOBIN CONCENTRATION [2]: 38.17 G/DL | MEAN CORPUSCULAR VOLUME [2]: 63.43 fL | MONOCYTE [2]: 3.33% | NEUTROPHIL [2]: 6% | NUCLEATED RED BLOOD CELLS [2]: 0 /100WBC | PLATELET COUNT [2]: 1165.33 x10E3/uL | ALANINE AMINOTRANSFERASE [2]: 57 u/L | ALBUMIN [2]: 4 G/DL | ALKALINE PHOSPHATASE [2]: 535.67 u/L | ASPARTATE AMINOTRANSFERASE [2]: 71 u/L | BLOOD UREA NITROGEN [2]: 10.67 mg/dL | CARBON DIOXIDE [2]: 22.67 mmol/L | CHLORIDE [2]: 102.33 MEQ/L | CHOLESTEROL [2]: 50.33 mg/dL | CREATINE PHOSPHOKINASE [2]: 230.33 u/L | CREATININE [2]: 0.12 mg/dL | GLUCOSE [2]: 165 mg/dL | LACTATE DEHYDROGENASE [2]: 54.33 u/L | LIPASE [2]: 9.33 u/L | PHOSPHORUS [2]: 10.63 mg/dL | POTASSIUM [2]: 6.01 MEQ/L | SODIUM [2]: 142.3 MEQ/L | TOTAL BILIRUBIN [2]: 0.17 mg/dL | TOTAL PROTEIN [2]: 5.87 G/DL | URIC ACID [2]: 1.77 mg/dL | ABSOLUTE BASOPHIL [3]: 0 CELLS/uL | ABSOLUTE EOSINOPHIL [3]: 139 CELLS/uL | ABSOLUTE LYMPHOCYTE [3]: 10102.67 CELLS/uL | ABSOLUTE MONOCYTE [3]: 609.67 CELLS/uL | ABSOLUTE SEGMENTED NEUTROPHIL [3]: 1115.33 CELLS/uL | BASOPHIL [3]: 0% | EOSINOPHIL [3]: 1% | ERYTHROCYTE COUNT [3]: 5.79 x10E6/uL | HEMATOCRIT [3]: 36.73% | HEMOGLOBIN [3]: 14.13 G/DL | LEUKOCYTE COUNT [3]: 11.97 x10E3/uL | LYMPHOCYTE [3]: 84.67% | MEAN CORPUSCULAR HEMOGLOBIN [3]: 24.4 pg | MEAN CORPUSCULAR HEMOGLOBIN CONCENTRATION [3]: 38.47 G/DL | MEAN CORPUSCULAR VOLUME [3]: 63.43 fL | MONOCYTE [3]: 5% | NEUTROPHIL [3]: 9.33% | NUCLEATED RED BLOOD CELLS [3]: 0 /100WBC | PLATELET COUNT [3]: 1189.33 x10E3/uL | ALANINE AMINOTRANSFERASE [3]: 78.67 u/L | ALBUMIN [3]: 4.17 G/DL | ALKALINE PHOSPHATASE [3]: 402 u/L | ASPARTATE AMINOTRANSFERASE [3]: 84.33 u/L | BLOOD UREA NITROGEN [3]: 10.67 mg/dL | CARBON DIOXIDE [3]: 22.33 mmol/L | CHLORIDE [3]: 103.67 MEQ/L | CHOLESTEROL [3]: 67 mg/dL | CREATINE PHOSPHOKINASE [3]: 522 u/L | CREATININE [3]: 0.21 mg/dL | GLUCOSE [3]: 181 mg/dL | LACTATE DEHYDROGENASE [3]: 126 u/L | LIPASE [3]: 17.33 u/L | PHOSPHORUS [3]: 11.7 mg/dL | POTASSIUM [3]: 5.88 MEQ/L | SODIUM [3]: 143.47 MEQ/L | TOTAL BILIRUBIN [3]: 0.13 mg/dL | TOTAL PROTEIN [3]: 5.83 G/DL | URIC ACID [3]: 2 mg/dL
